We go through 34 compounds from patent publication US5574061A, “Benzopyran derivative, process for producing the same and pharmaceutical composition containing the same” (priority 1990, dated 1996).

The structures appear in SMILES notation. Read-outs that look alike come from different tables or passages of the source.

Experiment [1] addresses T1, ACAT enzyme (rabbit intestinal mucosa microsome) (Oryctolagus cuniculus, UniProt G1SFD9).
T1 sequence (G1SFD9 1-524): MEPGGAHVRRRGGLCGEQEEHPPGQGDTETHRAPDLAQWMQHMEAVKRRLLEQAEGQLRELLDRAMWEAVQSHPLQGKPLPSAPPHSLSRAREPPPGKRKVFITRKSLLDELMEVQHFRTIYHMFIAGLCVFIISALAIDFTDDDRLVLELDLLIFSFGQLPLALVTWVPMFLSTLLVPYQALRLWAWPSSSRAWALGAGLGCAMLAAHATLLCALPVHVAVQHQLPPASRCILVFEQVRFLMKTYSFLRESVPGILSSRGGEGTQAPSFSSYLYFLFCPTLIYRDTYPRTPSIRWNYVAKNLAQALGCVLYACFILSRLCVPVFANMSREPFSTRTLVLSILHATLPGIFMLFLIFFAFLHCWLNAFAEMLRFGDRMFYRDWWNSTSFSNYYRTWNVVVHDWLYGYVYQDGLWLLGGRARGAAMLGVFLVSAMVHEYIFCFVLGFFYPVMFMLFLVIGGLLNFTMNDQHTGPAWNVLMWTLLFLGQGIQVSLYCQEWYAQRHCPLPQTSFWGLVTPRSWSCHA
Experimental: Measurement of ACAT enzyme inhibitory activity (measurement of ACAT enzyme inhibitory activity of rabbit intestinal mucosa)
Preparation of a domestic rabbit intestinal mucosa microsome and measurement of the ACAT enzyme activity were conducted by slightly modifying a method established by Salone and Field (see Biochemica et Biophysica, vol. 712, 557 (1982). The domestic rabbit intestinal mucosa was homogenized by using a 40 mM phosphate buffer having a pH value of 7.4 (buffer A) containing 30 mM EDTA, 50 mM KCl and 0.1M sucrose and centrifuged at 10,000×g and a temperature of 4° C. for 30 min to provide a supernatant. The supernatant was further centrifuged at 105,000×g and a temperature of 4° C. for one hr to provide a precipitate. The precipitate was resuspended in the buffer A to provide a microsome fraction.
1% v/v of a dimethylsulfoxide solution of each specimen compound in a predetermined concentration was added to the buffer A containing 43 μM serum albumin and 0.5 mg/ml microsome fraction, and the mixture was heated at 37° C. for 5 min.
Then, 43 μM oleoyl CoA containing [1-^14 C] oleoyl CoA (3.7 kB) was added thereto, the mixture was heated at 37° C. for 10 min, and chloroform/methanol (2/1) containing 10 mg/ml cholesteryl oleate was added thereto to terminate the reaction.
0.111 kB of [3H] cholesteryl oleate and 1N hydrochloric acid were added thereto, and the mixture was stirred. The cholesteryl oleate extracted into the chloroform layer was isolated by a thin-layer chromatography, and the radioactivity was measured as the ACAT activity.

Another experiment deals with serum cholesterol. Nature of the experiment: Percentage change of serum cholesterol in rats fed a feed enriched with cholesterol and fat. As to conditions: Rattus norvegicus, po, 72 h, Wistar rats, vs control; for change in vivo at 10 mg/kg: 10 mg per kg orally once a day for three days; for change in vivo at 1 mg/kg: 1 mg/kg orally once a day for three days. The format is in vivo, male Wistar rats. The source says: Percentage change of serum cholesterol
Male Wistar rats having a weight of 200 g were preliminarily bred for 7 days while they freely ingested a normal feed (CE-2 manufactured by CLEA Japan Inc.).
Thereafter, they were bred for 3 days while they freely ingested a feed enriched with cholesterol and fat (2% cholesterol, 1% cholic acid, 20% casein, 45% fine granulated sugar, 12% coconut oil, 4% KC flock, 1% mixed vitamin, 7% mixed mineral and 8% dried fish powder; a product of CLEA Japan Inc.). […] On the other hand, the excipient alone was administered to the control animals.
8 hr after the last administration, the test animals were fasted. 16 hr after the initiation of the fasting, these test animals were slaughtered. The serum cholesterol level was measured for each animal.
The results were compared with those of the control and are given as percentage serum cholesterol (%) in Table 3.
Percentage change of serum cholesterol (%)={(A-B)/B}×100
wherein A represents the total cholesterol level of serum in the group of rats to which the test compound was administered; and B represents the total cholesterol level of serum in the control group of rats.

In the case of `CCCCCCCCCCCCNC(=O)Nc1c(C)ccc2c1OCCC2=O` [Ex. 1, 1-Dodecyl-3-(7-methyl-4-chromanon-8-yl)urea], in experiment [1], the half-inhibitory concentration (IC50) stood at 73 nM.

`CCCCCCCCCCC(C)(C)C(=O)Nc1c(OC)ccc2c1OCCC2=O` [Ex. 2, N-(7-Methoxy-4-chromanon-8-yl)-2,2-dimethyldodecanamide] returned an IC50 in experiment [1] of 13 nM.

As to `CCCCCCCCCCCCNC(=O)Nc1c(OC)ccc2c1OCCC2(C)C` [Ex. 3], the IC50 in experiment [1] was found to be 340 nM.

For `COc1ccc2c(c1NC(=O)NCC1(c3ccccc3)CCCC1)OCCC2(C)C` [Ex. 4], the IC50 in experiment [1] came out at 690 nM.

`Cc1ccc2c(c1NC(=O)NCC1(c3ccccc3)CCCC1)OCCC2=O` [Ex. 6]: the midpoint of inhibition in experiment [1], the IC50, lay at 530 nM.

In turn, `COc1ccc(C2(CNC(=O)Nc3c(C)ccc4c3OCCC4=O)CCCC2)cc1` [Ex. 7] gave a half-maximal inhibitory concentration (IC50) in experiment [1] of 500 nM.

The compound `CCCCCCCCCCCCNC(=O)Nc1c(OC)ccc2c(=O)ccoc12` [Ex. 10] gave a half-inhibitory concentration (IC50) in experiment [1] of 330 nM.

The compound `CCCCCCCCCCC1(C(=O)Nc2ccc(OC)c3c2OCCC3(C)C)CCCC1` [Ex. 13] showed an IC50 in experiment [1] of 1200 nM.

In the case of `CCCCCCCCCCCCCCCC(=O)Nc1c(C)ccc2c1OCCC2=O` [Ex. 18], the IC50 in experiment [1] was 7.8 nM.

Turning to `CCCCCCCCCCC(C)(C)C(=O)Nc1c(C)ccc2c1OCCC2=O` [Ex. 19], the change in vivo at 10 mg/kg with serum cholesterol was -27%. This compound yielded an IC50 in experiment [1] of 210 nM.

As for `CCCCCCCCCCC1(C(=O)Nc2c(C)ccc3c2OCCC3=O)CCCC1` [Ex. 20], the change in vivo at 10 mg/kg in the experiment on serum cholesterol is -29%. The same compound showed an IC50 in experiment [1] of 170 nM.

For `Cc1ccc2c(c1NC(=O)C(C)(C)CCCCCc1ccccc1)OCCC2=O` [Ex. 25], in the experiment on serum cholesterol, the change in vivo at 10 mg/kg was -32%. Half-maximal inhibition in experiment [1] (IC50) required 250 nM.

Turning to `Cc1ccc2c(c1NC(=O)C(C)(C)CCCCOCCCC(C)C)OCCC2=O` [Ex. 26], the IC50 in experiment [1] came to 340 nM.

`Cc1ccc2c(c1NC(=O)C(C)(C)CCCCCCOCC(C)(C)C)OCCC2=O` [Ex. 28]: in the experiment on serum cholesterol, the change in vivo at 10 mg/kg is -31%. This compound gave a half-maximal inhibitory concentration (IC50) in experiment [1] of 54 nM.

Turning to `Cc1ccc2c(c1NC(=O)C(C)(C)CCCCCCOCCCC(C)C)OCCC2=O` [Ex. 29], the change in vivo at 10 mg/kg with serum cholesterol is -22%. For the same compound, the IC50 in experiment [1] is 200 nM.

In experiment [1], `Cc1ccc2c(c1NC(=O)C(C)(C)CCCCOc1ccc(C(C)(C)C)cc1)OCCC2=O` [Ex. 30] displayed an IC50 of 50 nM.

In the case of `Cc1ccc2c(c1NC(=O)C(C)(C)CCCCOc1ccc(Cl)cc1)OCCC2=O` [Ex. 31], the half-inhibitory concentration (IC50) in experiment [1] was found to be 510 nM.

In the case of `Cc1ccc2c(c1NC(=O)C(C)(C)CCCCCOc1ccc(Cl)cc1)OCCC2=O` [Ex. 32], the change in vivo at 10 mg/kg with serum cholesterol is -33%. Moreover, inhibition in experiment [1] was half-maximal at 470 nM (IC50).

As to `COc1ccc2c(c1NC(=O)C(C)(C)CCCCCCBr)OCCC2=O` [Ex. 37, N-(7-methoxy-4-chromanon-8-yl)-2,2-dimethyl-8-bromooctaneamide], inhibition in experiment [1] was half-maximal at 25 nM (IC50).

For the compound `COc1ccc2c(c1NC(=O)C(C)(C)CCCCCCc1ccccc1)OCCC2=O` [Ex. 38], in experiment [1], the concentration for half-maximal inhibition (IC50) came to 44 nM.

Compound `COc1ccc2c(c1NC(=O)C(C)(C)CCCCCCOc1ccc(C)cc1)OCCC2=O` [Ex. 40] gave an IC50 in experiment [1] of 43 nM.

On to `COc1ccc2c(c1NC(=O)C(C)(C)CCCCCOc1ccc(Cl)cc1)OCCC2=O` [Ex. 41], for which, in the experiment with serum cholesterol, the change in vivo at 1 mg/kg is -40%. In experiment [1], this compound came in with a half-maximal inhibitory concentration (IC50) of 52 nM.

Regarding `COc1ccc2c(c1NC(=O)C(C)(C)CCCCCCOc1ccc(Cl)cc1)OCCC2=O` [Ex. 42], in the experiment with serum cholesterol, the change in vivo at 1 mg/kg was -51%. In experiment [1], this compound returned an IC50 of 64 nM.

Regarding `Cc1cc(C)c2c(c1NC(=O)C(C)(C)CCCCCCOCC(C)C)OCCC2=O` [Ex. 43], half-maximal inhibition in experiment [1] (IC50) required 90 nM.

With `Cc1cc(C)c2c(c1NC(=O)C(C)(C)CCCCCOc1ccc(Cl)cc1)OCCC2=O` [Ex. 44], the IC50 in experiment [1] is 400 nM.

As for `COc1ccc2c(c1NC(=O)C(C)(C)CCCCCCOc1ccc(Cl)cc1)C(=O)CCO2` [Ex. 45], 180 nM corresponded to half-maximal inhibition in experiment [1] (IC50).

`CCCCCCCCCCC(C)(C)C(=O)Nc1c(Cl)ccc2c1OCCC2=O` [Ex. 47] gave an IC50 in experiment [1] of 150 nM.

On to `CCCCCCCCCCC(C)(C)C(=O)Nc1c(OCCC)ccc2c1OCCC2=O` [Ex. 48], for which the half-maximal inhibitory concentration (IC50) in experiment [1] amounted to 14 nM.

With `CCCCCCCCCCCCCCC(C)(C)C(=O)Nc1c(OC)ccc2c(=O)ccoc12` [Ex. 49], the concentration for half-maximal inhibition (IC50) in experiment [1] (read-out: ACAT Inhibitory Activity, IC50, rabbit intestinal mucosa microsome, [1-14C] oleoyl CoA, 37° C.) was 52 nM.

Take `CCCCCCCCCCC1(C(=O)Nc2c(OC)ccc3c(=O)ccoc23)CCCC1` [Ex. 50]: in the experiment with serum cholesterol, the change in vivo at 10 mg/kg is -27%. Besides, half-maximal inhibition in experiment [1] (IC50) required 270 nM.

In turn, `COc1ccc2c(=O)ccoc2c1NC(=O)C(C)(C)CCCCOc1ccc(C(C)(C)C)cc1` [Ex. 51] returned a concentration for half-maximal inhibition (IC50) in experiment [1] of 190 nM.

As for `COc1ccc2c(=O)ccoc2c1NC(=O)C(C)(C)CCCCCOc1ccc(Cl)cc1` [Ex. 52], the change in vivo at 3 mg/kg in the experiment on serum cholesterol (3 mg/kg orally once a day for three days) is -17%. The compound further yielded an IC50 in experiment [1] of 160 nM.

`CCCCCCCCCCC(C)(C)C(=O)Nc1c(OC)ccc2c(=O)cc(CC)oc12` [Ex. 54] returned an IC50 in experiment [1] of 780 nM.

For the compound `COc1ccc2c(c1NC(=O)C(C)(C)CCCCCCOc1ccc(N(C)C)cc1)OCCC2=O` [Ex. 55, N-(7-Methoxy-4-chromanon-8-yl)-2,2-dimethyl-8-p-dimethylaminophenoxyoctaneamide], 81 nM corresponded to half-maximal inhibition in experiment [1] (IC50).

Usually IC50 stands for the midpoint of a concentration-inhibition curve.
